Source: paper PMC12578646, “Prodrug florfenicol amine is activated by intrinsic resistance to target Mycobacterium abscessus” (Nature Microbiology, 2025)
Values after ≈ are worked out from the molar mass of the structure shown.

Key:
M. abscessus WT = system: T1, M. abscessus WT; test: microbe, parasite or virus in culture; parameters: broth microdilution MIC according to CLSI, read at 14 days; conditions: Mycobacteroides abscessus, 336 h, read-out: WT MIC (µg/mL), day 14
T1 construct: ATCC 19977

Eis2 [1] = target: T2, Eis2 (Mycobacteroides abscessus, UniProt B1MKV6); test: Michaelis-Menten acetylation kinetics with purified Eis2, DTNB free-thiol assay (control substrate); type: biochemical
T2 construct: gene MAB_4532c; Eis2–pET30a, TEV cleavable N-terminal 6 histidine tag (removed)
T2 sequence (B1MKV6 entry or part of it): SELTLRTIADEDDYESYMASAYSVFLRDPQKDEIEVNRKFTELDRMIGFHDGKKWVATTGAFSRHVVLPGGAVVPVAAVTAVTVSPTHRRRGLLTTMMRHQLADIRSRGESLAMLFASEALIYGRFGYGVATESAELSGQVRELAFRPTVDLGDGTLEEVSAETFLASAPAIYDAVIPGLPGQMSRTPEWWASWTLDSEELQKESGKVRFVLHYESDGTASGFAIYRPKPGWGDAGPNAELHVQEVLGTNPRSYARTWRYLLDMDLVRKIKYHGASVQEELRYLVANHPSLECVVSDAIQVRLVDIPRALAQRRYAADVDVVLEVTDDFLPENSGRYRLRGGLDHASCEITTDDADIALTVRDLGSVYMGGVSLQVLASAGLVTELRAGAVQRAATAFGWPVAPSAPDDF

in vitro = test: in vitro; parameters: HepG2 cytotoxicity, Cell-Titer Glo; conditions: human, hepg2 cells; read-out: HepG2 Cytotoxicity IC50
Procedure: (§1) MPS and cytotoxicity of experimental compounds and PTC-targeting controls against HepG2 (liver hepatocellular carcinoma cells ATCC HB-8065) were performed as previously described without any modifications (see ref. [56] for MPS assay and ref. [78] for cytotoxicity assay). […] Results reported as mean ± s.d., n = 3 biological replicate. The requirement for FF-NH2 to be activated by Eis2 led us to hypothesize that it would lack the mitochondrial protein synthesis (MPS) inhibition liability of other PTC-targeting agents. We therefore profiled FF-NH2, FF-ac and other analogues for MPS inhibition activity.

[2] = system: HepG2 mitochondrial protein synthesis; test: cells; parameters: mitochondrial protein synthesis inhibition in HepG2 cells; conditions: Homo sapiens, read-out: MPS IC50
Procedure: as §1, with “MPS inhibition and cytotoxicity assays MPS and” for “MPS and”

Eis2 [3] = target: T2, Eis2; test: Michaelis-Menten acetylation kinetics with purified Eis2, DTNB free-thiol assay; type: biochemical
[4] = system: NCC[C@H](O)C(=O)N[C@@H]1C[C@H](N)[C@@H](O[C@H]2O[C@H](CN)[C@@H](O)[C@H](O)[C@H]2O)[C@H](O)[C@H]1O[C@H]1O[C@H](CO)[C@@H](O)[C@H](N)[C@H]1O; test: purified protein, by the assay type; parameters: Eis2 acetyltransferase kinetics, Michaelis-Menten fit for substrate
Description: Consistent with previous findings, the aminoglycoside controls AMK and [compound left out] were also shown as substrates of Eis2 (ref. [47]), as well as CAM-NH2 and TAM-NH2. […] These findings highlight how specific chemical modifications to antibiotics govern substrate specificity and antimicrobial efficacy.

IC50 [2] [µM] | Compound | MIC (M. abscessus WT) [µg/mL] | CC50 at 72 h (in vitro) [µM] | other results
– | NCC[C@H](O)C(=O)N[C@@H]1C[C@H](N)[C@@H](O[C@H]2O[C@H](CN)[C@@H](O)[C@H](O)[C@H]2O)[C@H](O)[C@H]1O[C@H]1O[C@H](CO)[C@@H](O)[C@H](N)[C@H]1O [AMK, amikacin] | 4 to 8 (≈ 6.83 to 13.7 µM) | – | Michaelis-Menten acetylation kinetics with purified Eis2, DTNB free-thiol assay (Eis2 [1]): the aminoglycoside controls AMK and hygromycin B were also shown as substrates of Eis2
– | CC[C@H]1OC(=O)[C@H](C)[C@@H](O[C@H]2C[C@@](C)(OC)[C@@H](O)[C@H](C)O2)[C@H](C)[C@@H](O[C@@H]2O[C@H](C)C[C@H](N(C)C)[C@H]2O)[C@](C)(O)C[C@@H](C)CN(C)[C@H](C)[C@@H](O)[C@]1(C)O [AZITH] | > 32 | – | –
> 100 | N[C@H](CO)[C@H](O)c1ccc([N+](=O)[O-])cc1 [CAM-NH2, chloramphenicol amine] | – | > 200 | –
– | CC[C@H]1OC(=O)[C@H](C)[C@@H](O[C@H]2C[C@@](C)(OC)[C@@H](O)[C@H](C)O2)[C@H](C)[C@@H](O[C@@H]2O[C@H](C)C[C@H](N(C)C)[C@H]2O)[C@](C)(OC)C[C@@H](C)C(=O)[C@H](C)[C@@H](O)[C@]1(C)O [CLR] | 2 (≈ 2.67 µM) | – | –
5.5 ± 2.5 | O=C(N[C@H](CO)[C@H](O)c1ccc([N+](=O)[O-])cc1)C(Cl)Cl [Chloramphenicol] | – | > 200 | –
– | CC[C@H]1OC(=O)[C@H](C)[C@@H](O[C@H]2C[C@@](C)(OC)[C@@H](O)[C@H](C)O2)[C@H](C)[C@@H](O[C@@H]2O[C@H](C)C[C@H](N(C)C)[C@H]2O)[C@](C)(O)C[C@@H](C)C(=O)[C@H](C)[C@@H](O)[C@]1(C)O [ERY] | > 32 | – | –
4.7 ± 1.7 | CC(=O)N[C@H](CF)[C@H](O)c1ccc(S(C)(=O)=O)cc1 [FF-ac, florfenicol acetyl] | – | > 200 | –
1.2 ± 0.2 | CS(=O)(=O)c1ccc([C@@H](O)[C@@H](CF)NC(=O)C(Cl)Cl)cc1 [Florfenicol] | – | > 200 | –
– | CC(=O)NC[C@H]1CN(c2ccc(N3CCOCC3)c(F)c2)C(=O)O1 [LZD] | 8 (≈ 23.7 µM) | – | –
6.2 ± 1.6 | CC(=O)NC[C@H]1CN(c2ccc(N3CCOCC3)c(F)c2)C(=O)O1 [Linezolid] | – | > 200 | –
– | O=C1CN(/N=C/c2ccc([N+](=O)[O-])o2)C(=O)N1 [Nitrofurantoin, nitrofurantoin] | – | 6.8 ± 0.3 | –
– | CN[C@@H]1[C@H](O)[C@H](NC)[C@H]2O[C@@]3(O)C(=O)C[C@@H](C)O[C@H]3O[C@@H]2[C@H]1O [SPC] | 512 (≈ 1540 µM) | – | –
> 100 | CS(=O)(=O)c1ccc([C@@H](O)[C@H](N)CO)cc1 [TAM-NH2, thiamphenicol amine] | – | > 200 | –
1.4 ± 0.7 | CS(=O)(=O)c1ccc([C@@H](O)[C@@H](CO)NC(=O)C(Cl)Cl)cc1 [Thiamphenicol] | – | > 200 | –
– | CSc1ccc2c(c1)N(CCC1CCCCN1C)c1ccccc1S2 (stereo not shown) [Thioridazine, thioridazine] | – | 6.6 ± 0.3 | –
– | Eis2 (Mycobacteroides abscessus ATCC 19977) | – | – | Km [4]: 232.6 ± 26 µM; Vmax [4]: 6 µM/min; kcat [4]: 4.7 ± 0.5 s⁻¹; kcat/Km [4]: 20000 ± 320 M⁻¹ s⁻¹

Compound | IC50 [2] [µM] | MIC (M. abscessus WT) [µg/mL] | CC50 at 72 h (in vitro) [µM] | other results
CS(=O)(=O)c1ccc([C@@H](O)[C@H](N)CF)cc1 [FF-NH2, florfenicol amine] | > 100 | 62.5 to 125 (≈ 253 to 505 µM) | > 200 | Michaelis-Menten acetylation kinetics with purified Eis2, DTNB free-thiol assay (Eis2 [3]): kcat/KM 6.7 × 10^3 ± 5.1 × 10^2
